Assay [1] has as its target T1, human bradykinin 1 receptor (B1R) (Homo sapiens, UniProt P46663).
T1 construct: expressed in transfected cells
T1 sequence (P46663 1-353): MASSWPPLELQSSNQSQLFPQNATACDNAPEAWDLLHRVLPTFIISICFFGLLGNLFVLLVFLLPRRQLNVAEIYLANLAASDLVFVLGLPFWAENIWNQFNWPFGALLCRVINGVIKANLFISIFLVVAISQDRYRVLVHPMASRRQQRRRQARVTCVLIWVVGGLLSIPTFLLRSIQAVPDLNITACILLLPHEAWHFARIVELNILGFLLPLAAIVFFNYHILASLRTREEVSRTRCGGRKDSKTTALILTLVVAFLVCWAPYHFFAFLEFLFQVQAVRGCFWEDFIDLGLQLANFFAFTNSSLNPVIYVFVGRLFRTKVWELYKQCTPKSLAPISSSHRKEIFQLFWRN
Description: FLIPR Ca2+ assay, B1R antagonism, human. The class given is cell-based. The settings on record: 10 μM test substance, CHO K1 cells with human B1R gene (hB1R cells), Lys-Des-Arg9-bradykinin at EC80, % inhibition compared with the maximum achievable inhibition; for inhibition at 10 µM: read-out: B1R antagonism, human [10 μM] % inhibition. As to the method:
(§1) The agonistic or antagonistic action of substances can be quantified on the bradykinin 1 receptor (B1R) of the human and rat species with ectopically expressing cell lines (CHO K1 cells) and with the aid of a Ca^2+-sensitive dyestuff (Fluo-4) in a fluorescent imaging plate reader (FLIPR). The figure in % activation is based on the Ca^2+ signal after addition of Lys-Des-Arg^9-bradykinin (0.5 nM) or Des-Arg^9-bradykinin (100 nM). Antagonists lead to a suppression of the Ca^2+ inflow after addition of the agonist. % inhibition compared with the maximum achievable inhibition is stated.
(§2) The agonistic or antagonistic action of substances can be determined on the bradykinin 1 receptor (B1R) of the human and rat species with the following assay. In accordance with this assay, the Ca^2+ inflow through the channel is quantified with the aid of a Ca^2+-sensitive dyestuff (type Fluo-4, Molecular Probes Europe BV, Leiden, Holland) in a fluorescent imaging plate reader (FLIPR, Molecular Devices, Sunnyvale, USA).
(§3) Chinese hamster ovary cells (CHO K1 cells) transfected stably with the human B1R gene (hB1R cells) or the B1R gene of the rat (rB1R cells) are used. For functional studies, these cells are plated out on black 96-well plates with a clear base (BD Biosciences, Heidelberg, Germany or Greiner, Frickenhausen, Germany) in a density of 20,000-35,000 cells/well. The cells are left overnight at 37° C. and 5% CO2 in culture medium (hB1R cells: Nutrient Mixture Ham's F12, Gibco Invitrogen GmbH, Karlsruhe, Germany or DMEM, Sigma-Aldrich, Taufkirchen, Germany; rB1R cells: D-MEM/F12, Gibco Invitrogen GmbH, Karlsruhe, Germany) with 10 vol. % FBS (foetal bovine serum, Gibco Invitrogen GmbH, Karlsruhe, Germany or PAN Biotech GmbH, Aidenbach, Germany).
(§4) On the following day, the cells are loaded for 60 min at 37° C. with 2.13 μM Fluo-4 (Molecular Probes Europe BV, Leiden, Holland) in HBSS buffer (Hank's buffered saline solution, Gibco Invitrogen GmbH, Karlsruhe, Germany) with 2.5 mM probenecid (Sigma-Aldrich, Taufkirchen, Germany) and 10 mM HEPES (Sigma-Aldrich, Taufkirchen, Germany). The plates are then washed 2× with HBSS buffer, and HBSS buffer which additionally contains 0.1% BSA (bovine serum albumin; Sigma-Aldrich, Taufkirchen, Germany), 5.6 mM glucose and 0.05% gelatine (Merck KGaA, Darmstadt, Germany) is added. After a further incubation of 20 minutes at room temperature, the plates are inserted into the FLIPR for the Ca^2+ measurement.
(§5) Alternatively, the plates are washed with buffer A (15 mM HEPES, 80 mM NaCl, 5 mM KCl, 1.2 mM CaCl2, 0.7 mM MgSO4, 2 g/l glucose, 2.5 mM probenecid), buffer A is added and the plates are loaded with 2.5 μM Fluo-4 and 0.025% Pluronic F127 (Sigma-Aldrich, Taufkirchen, Germany). Thereafter, the cells are washed 2× with buffer A and incubated for 30 minutes with buffer A, which additionally contains 0.05% BSA and 0.05% gelatine, at room temperature and thereafter inserted into the FLIPR for the Ca^2+ measurement.
(§6) The Ca^2+-dependent fluorescence is measured here before and after addition of substances (λex=488 nm, λem=540 nm). Quantification is by measurement of the highest fluorescence intensity (FC, fluorescence counts) over time.
(§7) The FLIPR protocol consists of 2 additions of substance. Test substances (10 μM) are first pipetted on to the cells and the Ca^2+ inflow is compared with the control (hB1R: Lys-Des-Arg^9-bradykinin >=50 nM; rB1R: Des-Arg^9-bradykinin 10 μM). This gives the figure in % activation based on the Ca^2+ signal after addition of Lys-Des-Arg^9-bradykinin (>=50 nM) or Des-Arg^9-bradykinin (10 μM).
(§8) After incubation for 10-20 minutes, Lys-Des-Arg^9-bradykinin (hB1R) or Des-Arg^9-bradykinin (rB1R) in the concentration of the EC80 is applied and the inflow of Ca^2+ is likewise determined. Antagonists lead to a suppression of the Ca^2+ inflow. % inhibition compared with the maximum achievable inhibition is calculated. […]

The target of assay [2] is T2, bradykinin 1 receptor (B1R) of the rat (Rattus norvegicus, UniProt P97583).
T2 construct: expressed in transfected cells
T2 sequence (P97583 1-337): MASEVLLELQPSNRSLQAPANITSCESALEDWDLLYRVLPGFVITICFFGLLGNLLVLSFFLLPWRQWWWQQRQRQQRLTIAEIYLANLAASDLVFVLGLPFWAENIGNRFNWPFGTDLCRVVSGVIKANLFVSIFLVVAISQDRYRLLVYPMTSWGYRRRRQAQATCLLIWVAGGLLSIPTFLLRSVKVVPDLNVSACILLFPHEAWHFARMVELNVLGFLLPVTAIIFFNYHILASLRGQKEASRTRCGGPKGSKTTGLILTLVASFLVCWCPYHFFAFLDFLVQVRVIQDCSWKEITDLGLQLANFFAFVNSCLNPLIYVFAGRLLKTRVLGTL
Description: FLIPR Ca2+ assay, B1R antagonism, rat. The note with it: CHO-K1, 10 μM test substance; CHO K1 cells with rat B1R gene (rB1R cells); Des-Arg9-bradykinin at EC80; % inhibition compared with the maximum achievable inhibition; read-out: B1R antagonism, rat [10 μM] % inhibition. The class given is cell-based. As to the method: as §1, §2, §3, §4, §5, §6, §7, §8

On to `Cc1cccc(Cl)c1S(=O)(=O)N(CCOCC(=O)N1CCC(OCCN2CCCC2)(c2cccc(F)c2)CC1)C1CC1` [Example 62, 2-chloro-N-cyclopropyl-N-[2-[2-[4-(3-fluorophenyl)-4-(2-pyrrolidin-1-yl-ethoxy)-piperidin-1-yl]-2-oxo-ethoxy]-ethyl]-6-methyl-benzenesulfonic acid amide], for which the inhibition at 10 µM was determined as 100% in assay [1] and 102% in assay [2].
Turning to `COc1cc(C)c(S(=O)(=O)N2CCCCC2COCC(=O)N2CCC(OCCN3CCCC3)(c3cccnc3)CC2)c(C)c1` (stereo not shown) [Example 20, 2-((1-(4-methoxy-2,6-dimethylphenylsulfonyl)piperidin-2-yl)methoxy)-1-(4-(pyridin-3-yl)-4-(2-(pyrrolidin-1-yl)ethoxy)piperidin-1-yl)ethanone], the inhibition at 10 µM in assay [1] is 104%; in assay [2], 102%.
Consider `O=C(CC(NS(=O)(=O)c1ccc2ccccc2c1)c1ccccc1)N1CCC(OCCN2CCCCC2)(c2cccnc2)CC1` (stereo not shown) [Example 11, N-(3-oxo-1-phenyl-3-(4-(2-(piperidin-1-yl)ethoxy)-4-(pyridin-3-yl)piperidin-1-yl)propyl)naphthalene-2-sulfonamide], for which the inhibition at 10 µM in assay [1] was 103%; in assay [2], 52%.
`COc1cc(C)c(S(=O)(=O)N2CCCC[C@H]2COCC(=O)N2CCC(OCCN3CCCC3)(c3cccc(F)c3)CC2)c(C)c1` [Example 51, (S)-1-(4-(3-fluorophenyl)-4-(2-(pyrrolidin-1-yl)ethoxy)piperidin-1-yl)-2-((1-(4-methoxy-2,6-dimethylphenylsulfonyl)piperidin-2-yl)methoxy)ethanone]: the inhibition at 10 µM was 98% in assay [1] and 97% in assay [2].
The matching figures for `COc1cc(C)c(S(=O)(=O)N2c3ccccc3OCC2COCC(=O)N2CCC(OCCN3CCCC3)(c3ccncc3)CC2)c(C)c1` (stereo not shown) [Example 108, 2-[[4-[(4-methoxy-2,6-dimethyl-phenyl)sulfonyl]-3,4-dihydro-2H-[1,4]benzoxazin-3-yl]-methoxy]-1-[4-pyridin-4-yl-4-(2-pyrrolidin-1-yl-ethoxy)-piperidin-1-yl]-ethanone]: 100% and 103%.
For the compound `COc1cc(C)c(S(=O)(=O)N2CCCCC2CCCC(=O)N2CCC(OCCN3CCCC3)(c3cccnc3)CC2)c(C)c1` (stereo not shown) [Example 88, 4-[1-[(4-methoxy-2,6-dimethyl-phenyl)sulfonyl]-piperidin-2-yl]-1-[4-pyridin-3-yl-4-(2-pyrrolidin-1-yl-ethoxy)-piperidin-1-yl]-butan-1-one], in assay [1], the “B1R antagonism, human [10 μM] % inhibition” value was determined as 100%.
In the case of `O=C(COCC1CCc2ccccc2N1S(=O)(=O)c1ccc2ccccc2c1)N1CCC(OCCN2CCCC2)(c2cccnc2)CC1` (stereo not shown) [Example 129, 2-[[1-(naphthalen-2-ylsulfonyl)-1,2,3,4-tetrahydro-quinolin-2-yl]-methoxy]-1-[4-pyridin-3-yl-4-(2-pyrrolidin-1-yl-ethoxy)-piperidin-1-yl]-ethanone], the inhibition at 10 µM in assay [2] came out at 92%.
For `O=C(CC(NS(=O)(=O)c1ccc2ccccc2c1)c1ccccc1)N1CCC(OCCN2CCCC2)(c2ccc(C(F)(F)F)cc2)CC1` (stereo not shown) [Example 77, N-[3-oxo-1-phenyl-3-[4-(2-pyrrolidin-1-yl-ethoxy)-4-[4-(trifluoromethyl)-phenyl]-piperidin-1-yl]-propyl]-naphthalene-2-sulfonic acid amide], the inhibition at 10 µM in assay [2] was 94%.
With `COc1cc(C)c(S(=O)(=O)N2CCCCC2CCCC(=O)N2CCC(OCCN3CCCC3)(c3ccc(C(F)(F)F)cc3)CC2)c(C)c1` (stereo not shown) [Example 79, 4-[1-[(4-methoxy-2,6-dimethyl-phenyl)sulfonyl]-piperidin-2-yl]-1-[4-(2-pyrrolidin-1-yl-ethoxy)-4-[4-(trifluoromethyl)-phenyl]-piperidin-1-yl]-butan-1-one], in assay [2], the inhibition at 10 µM amounted to 100%.
On the same count and under the same terms, under `COc1cc(C)c(S(=O)(=O)N(CCOCC(=O)N2CCC(OCCN3CCCC3)(c3ccc(F)cc3)CC2)C2CC2)c(C)c1` [Example 66, N-cyclopropyl-N-[2-[2-[4-(4-fluorophenyl)-4-(2-pyrrolidin-1-yl-ethoxy)-piperidin-1-yl]-2-oxo-ethoxy]-ethyl]-4-methoxy-2,6-dimethyl-benzenesulfonic acid amide] stands 97%; under `Cc1cccc(Cl)c1S(=O)(=O)N(CCOCC(=O)N1CCC(OCCN2CCCC2)(c2ccc(F)cc2)CC1)C1CC1` [Example 70, 2-chloro-N-cyclopropyl-N-[2-[2-[4-(4-fluorophenyl)-4-(2-pyrrolidin-1-yl-ethoxy)-piperidin-1-yl]-2-oxo-ethoxy]-ethyl]-6-methyl-benzenesulfonic acid amide], 98%.
For `Cc1cccc(Cl)c1S(=O)(=O)N1CCCCC1COCC(=O)N1CCC(OCCN2CCCC2)(c2ccc(F)cc2)CC1` (stereo not shown) [Example 68, 2-[[1-[(2-chloro-6-methyl-phenyl)sulfonyl]-piperidin-2-yl]-methoxy]-1-[4-(4-fluorophenyl)-4-(2-pyrrolidin-1-yl-ethoxy)-piperidin-1-yl]-ethanone], the inhibition at 10 µM in assay [2] worked out at 93%.
For `O=C(COCC1COc2ccccc2N1S(=O)(=O)c1ccccc1C(F)(F)F)N1CCC(OCCN2CCCC2)(c2cccc(F)c2)CC1` (stereo not shown) [Example 111, 1-[4-(3-fluorophenyl)-4-(2-pyrrolidin-1-yl-ethoxy)-piperidin-1-yl]-2-[[4-[[2-(trifluoromethyl)-phenyl]sulfonyl]-3,4-dihydro-2H-[1,4]benzoxazin-3-yl]-methoxy]-ethanone], the inhibition at 10 µM in assay [2] came out at 101%.
`O=C(CC(NS(=O)(=O)c1ccc2ccccc2c1)c1ccccc1)N1CCC(OCCN2CCCC2)(c2ccc(F)cc2)CC1` (stereo not shown) [Example 76, N-[3-[4-(4-fluorophenyl)-4-(2-pyrrolidin-1-yl-ethoxy)-piperidin-1-yl]-3-oxo-1-phenyl-propyl]-naphthalene-2-sulfonic acid amide]: in assay [2], the inhibition at 10 µM was 90%.

By inhibition is commonly meant the drop in the measured response relative to a control, in per cent.
